Source: US20220050096A1, “ANALYTE-SENSITIVE PROBES AND CONTACT LENS FOR DIAGNOSIS OF OCULAR PATHOLOGIES” (University Of Maryland, Baltimore, priority 2020, published 2022)
Where two headings read alike, the source gives them in different places.

Key:
[1] = Intensity decay analysis of 1,8-ANS in various solvents and contact lenses; format: physicochemical
Protocol: (§1) Fluorescence Spectroscopic Measurements. Fluorescence intensities and intensity decays were measured using a Varian™ Eclipse 4 spectrofluorometer and a FluoTime300 instrument from PicoQuant™ (Berlin, Germany) and analyzed with the EasyTau™ software. The excitation source was a 473 nm laser diode with a repetition rate of 40 MHZ and a pulse width less than 100 ps. In other embodiments, the excitation source for SG-PL was at 495 nm from a Solea™ supercontinuum laser (PicoQuant™, Germany) and a 375 nm laser diode (PDL 375, PicoQuant™), a repetition rate of 40 MHz, and a pulse width less than 100 ps. Some intensity and lifetime measurements for SG-PL (as indicated) were performed using Alba V confocal fluorescence lifetime microscopy, FLIM (ISS, Urbana, Ill.), with excitation source of a 473 nm laser diode with a repetition rate of 40 MHz and a pulse width near 250 ps.
(§2) Intensity decays were measured at the emission maximum with the band of 10 to 20 nm, analyzed in terms of the multi-exponential model:
(§3) I(t)=Σαi exp(−t/ti) (equation 1)
(§4) where Σαi=1.0 and Σfi=1.0. The term fi=αi τi is proportional to the fractional contribution of each component to the total intensity decay. The term τi/Σαi τi is the fractional contribution to the steady state emission. Here, we use the amplitude-weighted lifetime given by
In polar solvents like water, the emission of many fluorophores is shifted to longer wavelengths. In addition, the intensities can be much lower and the lifetimes much shorter. […] Table 20, below. […]

[2] = cited from earlier work; for Lifetime (ns), Ca bound form / Q, Ca bound form: bound form (in parentheses)
[3] = cited from earlier work
[4] = cited from earlier work; remark: listed apart in the source
[5] = Intensity decay of Prodan in various solvents and contact lenses; format: physicochemical
Protocol: as §1, §2, §3, §4
The observed spectral properties of 1,8-ANS in lens are consistent with 1,8-ANS properties noticed in a non-polar environment. The probe 6-propionyl-2-dimethylaminonaphthalene (Prodan™), which is also highly sensitive to local polarity, also was used. […] In MyDay™ lenses the emission maximum is at a shorter wavelength than that in acetonitrile.

[6] = cited from earlier work; remark: listed apart in the source
[7] = Chloride quenching (Stern-Volmer) of SPQ-C3 in water; format: physicochemical
Protocol: Quenching by Chloride. Collisional quenching occurs, for example, when SPQ-C18 (also referred to as OD-MQB (N-Octadecyl-6-methoxyquinolinium bromide)) has a diffusion collision with a chloride ion. The intensities (I) and lifetimes (6) are analyzed using the Stern-Volmer equation,
where F0 and τ0 are the intensities and lifetimes in the absence of chloride, and K is the quenching constant and the inverse of the [Cl^−] needed for 50% quenching. For collisional quenching, the value of F0/F and τ0/τ are typically the same. In solution, in the absence of lenses, the value of K=kq τ0 can be used to calculate the biomolecular quenching constant kq and the quenching efficiency. In the lenses, the [Cl−] may not be the same as in the bulk solution, but kq in the lenses is estimated by assuming the same concentration of chloride around the SPQ moiety in the lenses and in bulk solutions.
This approach for SPQ-C18 in lenses is shown in both intensities and amplitude-weighted lifetimes (FIG. 35A and FIG. 35B). […] This behavior is different from SG-PL where the binding site can be saturated at high Na^+ concentrations. In contrast, quenching of OD-MQB, both intensity and lifetime, continue to decrease as the chloride concentration increased. The steady-state intensities and intensity decays can be used to calculate the bimolecular quenching constant kq. This value can be interpreted by comparison with quenching of a fluorophore in solution without any steric barriers. For this measurement the water-soluble fluorophore 1-propenyl-6-methoxyquinolinium bromide (SPQ-C3) was used. This is the same structure of SPQ-C18 but with a shorter, three carbon propenyl chain. The unquenched lifetime (τ0) of P-MQB was 26 ns, and the Stern-Volmer constant K was 140 M^−1. From these values, we calculated the kq of 5.4×10^9 M^−1 sec^−1 which is a typical value for efficient quenching.
Emission spectra and time-dependent decays were obtained (data not shown). Stern-Volmer plots were obtained in water and in a Stenfilcon A (Aspire™) contact lens by plotting the normalized intensities with respect to the added chloride concentrations.

[8] = cation-bound form (in parentheses)

## O=S(=O)(O)c1cccc2cccc(Nc3ccccc3)c12 [1,8-ANS, 1-anilino-8-naphthalene sulfonic acid]
[1]; 1-hexanol
  f1: 0.01
  f2: 0.99
  α1: 0.08
  α2: 0.92
  τ1: 1.77 ns
  τ2: 12.02 ns
  τf: 11.88 ns
  τα: 11.18 ns
[1]; 25/75 MeOH/H2O
  f1: 0.98
  f2: 0.02
  α1: 0.996
  α2: 0.004
  τ1: 0.52 ns
  τ2: 2.36 ns
  τf: 0.54 ns
  τα: 0.52 ns
[1]; 50/50 MeOH/H2O
  f1: 0.85
  f2: 0.15
  α1: 0.925
  α2: 0.075
  τ1: 1.09 ns
  τ2: 2.33 ns
  τf: 1.27 ns
  τα: 1.19 ns
[1]; Acetonitrile
  f1: 1.0
  α1: 1.0
  τ1: 7.04 ns
  τf: 7.04 ns
  τα: 7.04 ns
[1]; Biofinity ™ lens
  f1: 0.05
  f2: 0.95
  α1: 0.36
  α2: 0.64
  τ1: 0.40 ns
  τ2: 11.00 ns
  τf: 11.91 ns
  τα: 8.76 ns
[1]; EtOH
  f1: 0.02
  f2: 0.98
  α1: 0.05
  α2: 0.95
  τ1: 3.13 ns
  τ2: 8.83 ns
  τf: 8.74 ns
  τα: 8.57 ns
[1]; MyDay ™ lens
  f1: 0.20
  f2: 0.80
  α1: 0.421
  α2: 0.578
  τ1: 4.01 ns
  τ2: 12.79 ns
  τf: 11.97 ns
  τα: 9.70 ns

## Cc1ccc(N(CC(=O)O)CC(=O)O)c(OCCOc2cc3cc(-c4ncc(C(=O)O)o4)oc3cc2N(CC(=O)O)CC(=O)O)c1 [F ? -2]
[2]
  Lifetime (ns), Ca bound form: 1.68 ns
  Q, Ca bound form: 0.49
  Lifetime (ns), Ca free form: 1.09 ns
  Q, Ca free form: 0.23

## O=S(=O)(O)c1cc(O)c2ccc3c(S(=O)(=O)O)cc(S(=O)(=O)O)c4ccc1c2c34 [HPTS, 8-hydroxypyrene-1,3,6-trisulfonate]
[3]
  pKA: 7.3

## Cc1ccc(N(CC(=O)O)CC(=O)O)c(OCCOc2cc(-c3cc4ccc(C(=O)O)cc4[nH]3)ccc2N(CC(=O)O)CC(=O)O)c1 [Indo-1]
[2]
  Lifetime (ns), Ca bound form: 1.66 ns
  Q, Ca bound form: 0.50
  Lifetime (ns), Ca free form: 1.40 ns
  Q, Ca free form: 0.38

## O=C(O)c1ccccc1-c1c2cc(F)c(=O)cc-2oc2cc(O)c(F)cc12 [Oregon-Green]
[3]; A form (value in parentheses)
  Lifetime (ns) τA: 2.47 ns
  QA: 0.22
[3]; B form
  Lifetime (ns) τB: 4.37 ns
  QB: 0.65
[3]
  pKA: 1.8

## COc1cc2cc(-c3ccc(C(=O)O)cc3C(=O)O)oc2cc1N1CCOCCOCCN(c2cc3oc(-c4ccc(C(=O)O)cc4C(=O)O)cc3cc2OC)CCOCCOCC1 [PBF ?]
[4]; [8]
  Lifetime (ns), cation-bound form: 0.72 ns
  Q, cation-bound form: 0.72
[4]; free form
  Lifetime (ns), free form: 0.47 ns
  Q, free form: 0.24

## Cc1ccc(N(CC(=O)O)CC(=O)O)c(OCCOc2cc(-c3c4cc(Cl)c(=O)cc-4oc4cc(O)c(Cl)cc34)ccc2N(CC(=O)O)CC(=O)O)c1 [Pluo-3]
[2]
  Lifetime (ns), Ca bound form: 1.28 ns
  Lifetime (ns), Ca free form: 0.04 ns

## CCC(=O)c1ccc2cc(N(C)C)ccc2c1 [Prodan ™]
[5]; in 1-hexanol
  f1: 1.0
  α1: 1.0
  τ1: 3.40 ns
  τf: 3.40 ns
  τα: 3.40 ns
[5]; in Acetonitrile
  f1: 1.0
  α1: 1.0
  τ1: 3.38 ns
  τf: 3.38 ns
  τα: 3.38 ns
[5]; in Biofinity contact lens
  f1: 1.0
  α1: 1.0
  τ1: 3.98 ns
  τf: 3.98 ns
  τα: 3.98 ns
[5]; in EtOH
  f1: 1.0
  α1: 1.0
  τ1: 3.28 ns
  τf: 3.28 ns
  τα: 3.28 ns
[5]; in MyDay contact lens, 2 hr
  f1: 0.82
  f2: 0.18
  α1: 0.94
  α2: 0.07
  τ1: 3.81 ns
  τ2: 12.15 ns
  τf: 5.34 ns
  τα: 4.36 ns
[5]; in MyDay contact lens, 1 day
  f1: 0.67
  f2: 0.33
  α1: 0.87
  α2: 0.13
  τ1: 4.48 ns
  τ2: 14.41 ns
  τf: 7.76 ns
  τα: 5.80 ns
[5]; in Water
  f1: 0.494
  f2: 0.51
  α1: 0.740
  α2: 0.260
  τ1: 0.69 ns
  τ2: 2.02 ns
  τf: 1.36 ns
  τα: 1.04 ns

## COc1cc(N(CC(=O)O)CC(=O)O)c2nc(COc3cc(C)ccc3N(CC(=O)O)CC(=O)O)ccc2c1 [Quin-2]
[2]
  Lifetime (ns), Ca bound form: 11.6 ns
  Q, Ca bound form: 0.14
  Lifetime (ns), Ca free form: 1.35 ns
  Q, Ca free form: 0.03

## O=c1ccc2nc3ccc(O)cc3oc-2c1 [Resorufin]
[3]; A form (value in parentheses)
  Lifetime (ns) τA: 0.45 ns
[3]; B form
  Lifetime (ns) τB: 2.92 ns
[3]
  pKA: ~5.7

## COc1cc2cc(-c3ccc(C(=O)O)cc3C(=O)O)oc2cc1N1CCOCCOCCN(c2cc3oc(-c4ccc(C(=O)O)cc4C(=O)O)cc3cc2OC)CCOCC1 [SBF ?]
[6]; [8]
  Lifetime (ns), cation-bound form: 0.47 ns
  Q, cation-bound form: 0.087
[6]; free form
  Lifetime (ns), free form: 0.27 ns
  Q, free form: 0.645
[6]; read-out: K (mM), binding constant
  Kd: 3.8 mM

## CC=C[n+]1cccc2cc(OC)ccc21.[Br-] [SPQ-C3, 1-propenyl-6-methoxyquinolinium bromide]
[7]; in Water
  bimolecular quenching constant: 5.4e+09 M⁻¹ s⁻¹
[7]; in solution
  Stern-Volmer constant K: 140 M⁻¹
  unquenched lifetime (τ0): 26 ns
[7]; in solution, listed as P-MQB
  bimolecular quenching constant kq: 5.4e+09 M⁻¹ s⁻¹

## CCN(CC)Cc1ccnc(-c2cc(CN(CC)CC)ccn2)c1.[Ru+2].c1ccc(-c2ccccn2)nc1.c1ccc(-c2ccccn2)nc1 [[Ru(deabpy)(bpy)2]^2+]
[3]; A form (value in parentheses)
  Lifetime (ns) τA: 235 ns
[3]; B form
  Lifetime (ns) τB: 380 ns
[3]
  pKA: 7.5
